Test results reported in patent publication US4444776A, “Dipyrido (4,3-B) (3,4-F) indoles, process for obtaining them, therapeutical use and pharmaceutical compositions” (priority 1977, dated 1984).
Where two headings read alike, the source gives them in different places.

Tests used:
[1] = tested on: Moloney virus / viro-induced Moloney sarcoma; test: Test 3: development of the viro-induced Moloney sarcoma; format: in vivo, new-born mice; conditions: J+1
Excerpt: The study of the development of the MOLONEY viro-induced sarcoma (Nat. Cancer. Inst. Monograph 22, 139-142, 1966) has also made it possible to determine that the compounds according to the invention are antiviral and antitumoral agents in lower animals.
Test 3: Study of the development of the viro-induced Moloney sarcoma
The injection of Moloney virus [C. Jasmin et al. J. Nat. Cander Inst. 1974 53 469-474] by the intramuscular i.m. route into new-born mice led after 10 days to the formation of a sarcoma. The appearance of the tumour was proportional to the dose of virus injected. The viral inoculum was constituted by a tumor homogenate diluted to 1/250, this corresponding to 10 TID 50, i.e. to the dose of virus inducing the appearance of a tumour in 50% of the animals infected. At this dose, 80 to 100% of the animals developed a tumour, and 100% of the survivors became leukemic. The experiment thus consisted in noting the number of mice presenting tumours, the regression, or not, of these tumours and finally in sacrificing the surviving animals after 2 months and in noting the presence or absence of splenomegaly (evidence of a leukemia). The virus was inoculated into new-born mice of 3 to 5 days by the IM route, and the mice received the following day (J+1) or five hours after injection (JO+5 hours) the product to be tested by the IP route.

L 1210 leukemia = test: Test 1: antitumoral properties on L 1210 leukemia (Table I); format: in vivo, mouse; conditions: 0.1 mg/mouse (5 mg/kg), J+1
Protocol: The lower animal antitumoral properties of the compounds according to the invention have been determined by their curative action on inoculated test L-1210 leukemia. [ZUBROD C. G., Proc. Nat. Acad. Sci. 1972, 69, 1042-1047 and SCHEPARTZ SA. SCREENING, 1971, CANCER Chemother. Rep. Part 3 vol.2 p.3].
This leukemia is maintained in ascitic form by passage (i.p. route) on CBDl (C57 B16×DBA/2)F1 mice. The preparation to be tested are injected by the intraperitoneal route at least one day after the inoculation of the cells (one injection only). The results are expressed in increased life span per cent (ILS %) according to KESSEL et al. Cancer Res. 1971, 31, 1883-1887) or in percentage of the number of cells killed by the product (the survival of the animals is proportional to the number of cells injected).
The following tests were made in groups of 10 mice, unless stipulated to the contrary.
Test 1: Study of the antitumoral properties of the compounds of the invention on L 1210 leukemia
The lower animal antitumoral properties of the compounds according to the invention were determined by their curative action on test inoculated L 1210 leukemia.
This leukemia was maintained on CBD 1 (C 57 B 16×DBA/2) F1 mice. The compounds to be tested were injected by the IP route one or more days after the inoculation of the cells (single injection). The results obtained, shown in table I hereinafter, are expressed in percentage of increase of life span (ILS %) and in percentage of the number of cells killed by the compound to be tested, the survival of the animals being proportional to the number of cells injected.
The percentage of the like span ILS % (Cancer. Res. 1971, 31, 1883-1887) is the following ratio: [formula] S^t =survival of the treated animals S^c =survival of the control animals

[2] = Test 4: toxicity on new-born mice, IP; format: in vivo, mouse; conditions: mouse, in vivo, read-out: dead mice (converted)
Excerpt: (§1) Test 4: Investigation of the toxicity
(§2) The toxic dose has been sought, on adult ([…]×DBA/2) Fl mice and on new-born mice, of the compounds of the invention by injection by the IP route. The results obtained are given hereinafter:
(§3) 2-On new-born mice (IP route)

new-born mice = test: Test 4: toxicity on new-born mice, IP; format: in vivo, mouse
Excerpt: as §1, §2, §3

L1210 leukemia = test: Test 16: structure-activity of R'1 substitution, L1210 (Table XII); format: in vivo, mouse (C57B16xDBA/2)F1; design: MST: unit not given here; conditions: 5 mg/kg, day +1
Protocol: Test 16: Relationship between structure and activity of various dipyrido indoles differing by the R'1 substitution.
L1210 leukemia has been maintained by weekly passages on (C57B16xDBA/2)F1 mice. On day 0, mice were inoculated by I.P. route with various numbers of L1210 ascitic tumor cells in volumes of 0.1 ml. Subsequently as indicated, drugs were administrated in Ca^++ and Mg^++ free PBS solutions (Gibco) or in Mac Coy's medium (Gibso or Microbiological Associates). […]

Cc1c2cc[n+](C)cc2c(C)c2c1[nH]c1ccc(O)cc12 [HUM, 2N--methyl-9-hydroxy-ellipticinium acetate, reference compound]
animals survived ([1]; 1 μg/mouse (0.5 mg/kg)): 90% | mice presenting tumours ([1]; 1 μg/mouse (0.5 mg/kg)): 30% | mice with leukemia ([1]; 1 μg/mouse (0.5 mg/kg)): 33% | tumours regressed ([1]; 1 μg/mouse (0.5 mg/kg)): 90% | animals presenting a tumour ([1]; 5 μg/mouse (2.5 mg/kg)): 20% | mice leukemic ([1]; 5 μg/mouse (2.5 mg/kg)): 10% | tumour regression ([1]; 5 μg/mouse (2.5 mg/kg)): 100% | ILS % (L 1210 leukemia; 10^3 cells): 22.15% | Number of cells found (L 1210 leukemia; 10^3 cells): 60 | Number of cells killed (L 1210 leukemia; 10^3 cells): 94% | Surviving mice (L 1210 leukemia; 10^3 cells): 3/10 | ILS % (L 1210 leukemia; 10^4 cells, IP): 22.6% | Number of cells found (L 1210 leukemia; 10^4 cells): 400 | Number of cells killed (L 1210 leukemia; 10^4 cells): 96% | Surviving mice (L 1210 leukemia; 10^4 cells): 1/10 | mortality ([2]; 5 μg: 2.5 mg/kg): 37.5% | mortality ([2]; 10 μg: 5 mg/kg): 37.5% | appearance of mice (new-born mice; 5 μg: 2.5 mg/kg): mice puny in appearance | appearance of mice (new-born mice; 10 μg: 5 mg/kg): mice puny in appearance | 60 days surv. (L1210 leukemia; 10^3 cells): 3 | ILS % (L1210 leukemia; 10^3 cells): 22.15% | MST (L1210 leukemia; 10^3 cells): 16.86 | Range of death (L1210 leukemia; 10^3 cells): 14-20 | ILS % (L1210 leukemia; 10^4 cells, control MST 11.8): 22.6% | MST (L1210 leukemia; 10^4 cells, control MST 11.8): 14.9 | Range of death (L1210 leukemia; 10^4 cells, control MST 11.8): 14-20
